We go through 25 compounds from article PMC8890504, “Evolution of Brain-Expressed Biogenic Amine Receptors into Olfactory Trace Amine-Associated Receptors” (Molecular Biology and Evolution, 2022).

Each structure is given as a SMILES string. pEC50: −log10 of the molar value. Where “and” joins values, the source holds several entries; their conditions need not be identical. Identical values can stand only once.

Experiment [1] has as its target TARLL4a (Petromyzon marinus, UniProt A0AAJ7T9R0). The experiment can be described thus: Cell-based receptor activation reporter assay (SEAP / Dual-Glo luciferase). Details: species or system sea lamprey. The note with it: for pEC50: TARLL4a; for ligand profile of TARLL4a: ligand library at 100 µM, fig. 4B, fig. S9B. As to the method: (§1) Fluorescence was measured with a BioTek Microplate reader.

The target in experiment [2] is mouse TAAR1 (Mus musculus, UniProt Q923Y8). In words: cell-based. The following applies: for response of mouse TAAR1: ligands at 10 µM, luciferase assay, fig. 5B. From the text:
(§2) Next, we conducted high-throughput screening to further explore the functional properties of these aminergic receptors. We cloned 248 TAARs from 11 mammals (human, mouse, rat, guinea pig, hamster, cat, horse, rabbit, sheep, rhesus, and wild boar), two reptiles (alligator and chicken), six teleosts (zebrafish, catfish, fugu, medaka, salmon, and pufferfish), one lobed-finned fish (coelacanth), one holost fish (spotted gar), and one cartilaginous fish (bamboo shark) (fig. 2A). We also cloned eight TARLs from coelacanth, zebrafish, catfish, fugu, medaka, spotted gar, shark, and 28 TARLLs from sea lamprey (supplementary table S2, Supplementary Material online). In addition, we cloned two HTR4s from mouse and zebrafish. We then challenged all of the cloned receptors with a ligand library comprised 97 amines at 100 µM.
We then compared the responses of HTR4 from mouse and zebrafish, TARL1 from zebrafish, catfish, fugu, medaka, spotted gar, and coelacanth, TARL2 from coelacanth and shark, TAAR1 from mouse and zebrafish to the 16 ligands at 10 µM (fig. 5B).
(§3) HEK293 cells were plated onto poly-D-lysine (Sigma–Aldrich) preincubated 96-well plates (Corning) with 50 µl growth medium (DMEM medium with 10% BCS and 5% penicillin–streptomycin solution) and cultured for 18–24 h. Receptor plasmids were cotransfected with Cre-SEAP plasmid using polyethylenimine (PEI, Polysciences) and incubated at 37 °C with 5% CO2. About 4 h later, cells were incubated with or without test compounds diluted in serum-free DMEM for 48 h, followed by incubating for 2 h at 70 °C. After returning to room temperature, 50 µl supernatant from each well was incubated with an equal volume of 0.3 mM 4-methylumbelliferyl phosphate (4-MUP, Sigma–Aldrich) in 2 M diethanolamine bicarbonate (Sigma–Aldrich), pH 10.0 for 15 min. Fluorescence was measured with a BioTek Microplate reader.
(§4) Hana3A cells were plated onto 96-well plates (Greiner bio-one) with 50 µl growth medium (DMEM medium with 10% BCS and 5% penicillin–streptomycin solution with puromycin) and cultured at 37 °C with 5% CO2. After 18–24 h, cells in each well were cotransfected with 50 ng receptor plasmid, 10 ng CRE-Luc, 10 ng pRL-SV40, and 10 ng mRTPs using Lipofectamine 2000 (Invitrogen), and incubated for 18 h. Medium was then replaced by 25 µl CD293 (Invitrogen) containing 1% glutamine with or without test compounds for 4 h. The chemiluminescence of firefly luciferase and renilla luciferase were measured with a Biotek Microplate reader using the Dual-Glo Luciferase Assay System (Promega).

Experiment [3] relates to cat TAAR9. The experiment can be described thus: Cell-based receptor activation reporter assay (SEAP / Dual-Glo luciferase). The following applies: table S3. As to the method:
as §1

For experiment [4], the target named is T1, hamster TAAR9 (Mesocricetus auratus, UniProt A0A1U7R5X1).
T1 construct: Rho tag (N-terminal 20 aa of bovine rhodopsin); expressed in transfected cells; host or cells: HEK293T (SEAP assay) or Hana3A (Dual-Glo luciferase assay)
T1 sequence (A0A1U7R5X1 1-348): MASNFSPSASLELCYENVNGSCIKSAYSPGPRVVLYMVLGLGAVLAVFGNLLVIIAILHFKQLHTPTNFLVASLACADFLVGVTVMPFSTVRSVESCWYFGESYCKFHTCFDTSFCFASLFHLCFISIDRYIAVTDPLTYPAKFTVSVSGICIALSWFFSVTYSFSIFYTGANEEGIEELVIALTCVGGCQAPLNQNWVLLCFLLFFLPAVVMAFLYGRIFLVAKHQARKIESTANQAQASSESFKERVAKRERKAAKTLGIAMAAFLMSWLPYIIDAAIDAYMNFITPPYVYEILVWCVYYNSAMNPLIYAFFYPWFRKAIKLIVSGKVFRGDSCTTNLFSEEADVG
The experiment is described as above. The following applies: table S3. As to the method:
as §1

The target of experiment [5] is T2, rabbit TAAR9 (Oryctolagus cuniculus, UniProt G1SUU9).
T2 construct: Rho tag (N-terminal 20 aa of bovine rhodopsin); expressed in transfected cells; host or cells: HEK293T (SEAP assay) or Hana3A (Dual-Glo luciferase assay)
T2 sequence (G1SUU9 1-348): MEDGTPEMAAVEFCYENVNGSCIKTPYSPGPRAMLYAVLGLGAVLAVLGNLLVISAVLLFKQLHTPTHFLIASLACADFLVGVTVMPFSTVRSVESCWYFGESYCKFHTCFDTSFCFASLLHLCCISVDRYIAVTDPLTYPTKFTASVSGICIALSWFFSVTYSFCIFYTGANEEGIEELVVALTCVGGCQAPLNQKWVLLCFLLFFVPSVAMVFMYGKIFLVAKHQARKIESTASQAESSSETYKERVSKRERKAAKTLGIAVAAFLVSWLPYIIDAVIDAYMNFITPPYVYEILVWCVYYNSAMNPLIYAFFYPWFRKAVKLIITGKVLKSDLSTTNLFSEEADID
The description is as above. The following applies: table S3. As to the method: as §1

Experiment [6] addresses T3, rat TAAR9 (Rattus norvegicus, UniProt Q923Y6).
T3 construct: bovine rhodopsin N-terminal 20 amino acids (Rho tag); expressed in transfected cells; host or cells: HEK293(T) (SEAP assay) or Hana3A (Dual-Glo assay)
T3 sequence (Q923Y6 1-338): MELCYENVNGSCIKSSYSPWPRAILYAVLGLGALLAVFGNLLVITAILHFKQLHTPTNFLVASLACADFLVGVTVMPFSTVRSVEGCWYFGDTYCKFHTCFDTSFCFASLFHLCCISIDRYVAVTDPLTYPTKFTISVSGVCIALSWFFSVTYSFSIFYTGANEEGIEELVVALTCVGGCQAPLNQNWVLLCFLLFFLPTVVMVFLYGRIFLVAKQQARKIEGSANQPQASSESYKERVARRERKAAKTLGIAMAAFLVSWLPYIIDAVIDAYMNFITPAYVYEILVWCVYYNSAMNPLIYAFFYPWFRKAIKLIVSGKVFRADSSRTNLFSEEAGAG
The experiment is described as above. The note with it: table S3. As to the method: as §1

Experiment [7] relates to mouse TAAR9. Details: method as in Saraiva et al. 2016. The note with it: ref Saraiva et al. 2016; cited from earlier work.
Experiment [8] has as its system TARLL2a (also called TAAR346a). Set-up: method as in Scott et al. 2019. The following applies: ref Scott et al. 2019; cited from earlier work.
Experiment [9] addresses TARLL1b (Petromyzon marinus, UniProt A0AAJ7TCG4). In words: Cell-based receptor activation reporter assay (SEAP / Dual-Glo luciferase). Set-up: species or system sea lamprey. The following applies: for pEC50: TARLL1b. As to the method:
as §1
For orientation: A reporter such as luciferase makes a cellular process visible.

The target of experiment [10] is (UniProt Z9G6W3R3V9). The description is as above. The following applies: coelacanth TARL1. As to the method: as §1
Experiment [11] concerns the target coelacanth TAARC1b (Latimeria chalumnae, UniProt H3A8V0). The description is as above. As to the method:
as §1

The target in experiment [12] is coelacanth TARL2 (Latimeria chalumnae, UniProt H3AWX3). The description is as above. As to the method:
as §1

In experiment [13] the target is zebrafish TAAR1 (Danio rerio, UniProt Q5QNN1). The experiment is described as above. The following applies: zTAAR1. As to the method:
as §1

In experiment [14] the target is zebrafish TARL1 (Danio rerio, UniProt A0A8M1Q794). The description is as above. As to the method:
as §1

In experiment [15] the target is shark TAARS1b (Chiloscyllium punctatum, UniProt A0A401S5C1). The description is as above. Set-up: species or system bamboo shark. As to the method: as §1
Experiment [16] deals with sheep TAAR5 (Ovis aries, UniProt A0ACI6PZ16). The description is as above. As to the method: as §1
Experiment [17] concerns the target TARLL3h (Petromyzon marinus, UniProt A0A678XJN9). The experiment is described as above. Set-up: species or system sea lamprey. As to the method: as §1
In experiment [18] the target is guinea pig TAAR3 (Cavia porcellus, UniProt H0W7C9). The experiment is described as above. As to the method: as §1
Experiment [19] has as its target hamster TAAR3 (Mesocricetus auratus, UniProt A0A1U7Q6M0). The description is as above. As to the method: as §1
The target in experiment [20] is mouse HTR4 (Mus musculus, UniProt P97288). The experiment can be described thus: cell-based.
Excerpt: as §2, §3, §4

Chain of TARLL4a (A0AAJ7T9R0 entry or part of it): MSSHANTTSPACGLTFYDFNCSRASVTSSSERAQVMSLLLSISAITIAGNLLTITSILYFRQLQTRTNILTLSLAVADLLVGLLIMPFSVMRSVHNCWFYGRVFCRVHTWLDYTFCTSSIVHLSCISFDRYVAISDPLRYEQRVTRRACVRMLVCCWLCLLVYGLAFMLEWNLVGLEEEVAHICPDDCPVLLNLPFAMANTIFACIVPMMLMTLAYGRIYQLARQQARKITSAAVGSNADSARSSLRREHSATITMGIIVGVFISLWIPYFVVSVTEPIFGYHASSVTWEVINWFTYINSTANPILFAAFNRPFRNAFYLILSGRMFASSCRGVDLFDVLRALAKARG
Chain of TARLL1b (A0AAJ7TCG4 entry or part of it): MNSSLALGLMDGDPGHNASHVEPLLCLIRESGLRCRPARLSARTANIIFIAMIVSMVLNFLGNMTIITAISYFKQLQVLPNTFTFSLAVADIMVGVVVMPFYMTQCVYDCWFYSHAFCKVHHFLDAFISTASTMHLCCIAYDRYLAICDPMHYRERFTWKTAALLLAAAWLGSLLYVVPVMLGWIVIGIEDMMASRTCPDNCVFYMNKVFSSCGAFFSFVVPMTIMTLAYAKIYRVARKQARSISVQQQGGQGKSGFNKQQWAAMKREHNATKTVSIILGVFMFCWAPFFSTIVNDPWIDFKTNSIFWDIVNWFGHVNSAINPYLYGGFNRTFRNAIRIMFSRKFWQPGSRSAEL
Chain of mouse TAAR1 (Q923Y8 whole entry): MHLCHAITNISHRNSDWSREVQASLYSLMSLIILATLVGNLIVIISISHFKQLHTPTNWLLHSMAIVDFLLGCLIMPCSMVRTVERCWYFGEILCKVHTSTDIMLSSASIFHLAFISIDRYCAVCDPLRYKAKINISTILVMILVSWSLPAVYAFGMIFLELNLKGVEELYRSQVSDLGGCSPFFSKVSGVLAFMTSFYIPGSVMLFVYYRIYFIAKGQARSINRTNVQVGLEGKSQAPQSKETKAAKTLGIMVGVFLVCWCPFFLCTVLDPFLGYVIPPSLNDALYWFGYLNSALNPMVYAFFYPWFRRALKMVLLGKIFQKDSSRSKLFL
Chain of guinea pig TAAR3 (H0W7C9 entry or part of it): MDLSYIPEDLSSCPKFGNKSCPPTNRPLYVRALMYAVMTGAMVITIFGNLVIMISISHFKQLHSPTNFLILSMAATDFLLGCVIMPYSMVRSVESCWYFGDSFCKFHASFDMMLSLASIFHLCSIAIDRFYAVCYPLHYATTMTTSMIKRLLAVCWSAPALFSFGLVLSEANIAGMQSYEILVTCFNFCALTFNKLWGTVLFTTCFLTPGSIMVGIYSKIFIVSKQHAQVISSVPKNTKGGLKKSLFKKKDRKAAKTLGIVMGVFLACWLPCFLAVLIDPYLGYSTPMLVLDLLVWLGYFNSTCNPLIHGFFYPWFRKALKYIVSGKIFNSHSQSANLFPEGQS
Chain of TARLL3h (A0A678XJN9 entry or part of it): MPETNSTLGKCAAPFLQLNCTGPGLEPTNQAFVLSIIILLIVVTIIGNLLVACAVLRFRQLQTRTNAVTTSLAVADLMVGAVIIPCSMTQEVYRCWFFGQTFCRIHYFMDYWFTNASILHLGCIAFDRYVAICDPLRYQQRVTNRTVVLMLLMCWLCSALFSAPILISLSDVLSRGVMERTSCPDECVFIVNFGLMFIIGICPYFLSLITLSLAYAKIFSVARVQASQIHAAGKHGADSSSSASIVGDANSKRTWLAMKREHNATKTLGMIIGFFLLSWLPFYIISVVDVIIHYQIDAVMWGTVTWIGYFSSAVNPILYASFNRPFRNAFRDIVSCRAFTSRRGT
Chain of sheep TAAR5 (A0ACI6PZ16 entry or part of it): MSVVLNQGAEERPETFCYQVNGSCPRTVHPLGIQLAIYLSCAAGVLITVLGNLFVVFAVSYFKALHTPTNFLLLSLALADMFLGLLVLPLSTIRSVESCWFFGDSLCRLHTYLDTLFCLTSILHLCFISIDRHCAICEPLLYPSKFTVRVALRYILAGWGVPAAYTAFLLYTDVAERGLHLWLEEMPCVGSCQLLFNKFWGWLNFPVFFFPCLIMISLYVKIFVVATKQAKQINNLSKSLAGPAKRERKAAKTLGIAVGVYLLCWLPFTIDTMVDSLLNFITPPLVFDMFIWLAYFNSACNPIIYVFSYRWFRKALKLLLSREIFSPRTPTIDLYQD
Chain of hamster TAAR3 (A0A1U7Q6M0 entry or part of it): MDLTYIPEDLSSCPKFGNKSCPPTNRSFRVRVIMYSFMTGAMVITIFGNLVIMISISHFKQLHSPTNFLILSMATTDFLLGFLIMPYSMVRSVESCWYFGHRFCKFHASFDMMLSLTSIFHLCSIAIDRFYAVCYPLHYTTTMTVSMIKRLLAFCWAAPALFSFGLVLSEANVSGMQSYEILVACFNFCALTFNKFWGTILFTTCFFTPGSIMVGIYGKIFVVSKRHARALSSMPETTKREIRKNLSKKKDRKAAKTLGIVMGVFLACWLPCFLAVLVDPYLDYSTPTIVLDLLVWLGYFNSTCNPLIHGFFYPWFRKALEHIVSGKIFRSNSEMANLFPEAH
Chain of coelacanth TAARC1b (H3A8V0 entry or part of it): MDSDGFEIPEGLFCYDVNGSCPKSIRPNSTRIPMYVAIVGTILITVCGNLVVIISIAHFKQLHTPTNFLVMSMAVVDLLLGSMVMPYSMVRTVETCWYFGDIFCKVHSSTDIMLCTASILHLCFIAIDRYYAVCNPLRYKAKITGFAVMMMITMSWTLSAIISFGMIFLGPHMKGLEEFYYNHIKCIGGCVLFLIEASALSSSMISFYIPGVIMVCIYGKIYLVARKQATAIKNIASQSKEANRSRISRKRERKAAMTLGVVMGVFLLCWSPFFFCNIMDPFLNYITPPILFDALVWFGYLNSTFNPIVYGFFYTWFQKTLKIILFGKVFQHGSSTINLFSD
Chain of coelacanth TARL2 (H3AWX3 entry or part of it): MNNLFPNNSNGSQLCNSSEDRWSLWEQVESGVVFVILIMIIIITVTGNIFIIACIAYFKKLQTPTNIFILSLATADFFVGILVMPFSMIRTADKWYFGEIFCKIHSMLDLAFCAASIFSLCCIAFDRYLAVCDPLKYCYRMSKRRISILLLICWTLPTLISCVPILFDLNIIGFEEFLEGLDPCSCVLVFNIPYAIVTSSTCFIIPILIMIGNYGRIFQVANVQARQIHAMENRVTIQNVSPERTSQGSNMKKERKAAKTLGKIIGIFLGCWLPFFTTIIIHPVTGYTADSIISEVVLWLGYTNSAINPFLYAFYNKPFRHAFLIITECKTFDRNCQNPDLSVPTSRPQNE
Chain of mouse HTR4 (P97288 whole entry): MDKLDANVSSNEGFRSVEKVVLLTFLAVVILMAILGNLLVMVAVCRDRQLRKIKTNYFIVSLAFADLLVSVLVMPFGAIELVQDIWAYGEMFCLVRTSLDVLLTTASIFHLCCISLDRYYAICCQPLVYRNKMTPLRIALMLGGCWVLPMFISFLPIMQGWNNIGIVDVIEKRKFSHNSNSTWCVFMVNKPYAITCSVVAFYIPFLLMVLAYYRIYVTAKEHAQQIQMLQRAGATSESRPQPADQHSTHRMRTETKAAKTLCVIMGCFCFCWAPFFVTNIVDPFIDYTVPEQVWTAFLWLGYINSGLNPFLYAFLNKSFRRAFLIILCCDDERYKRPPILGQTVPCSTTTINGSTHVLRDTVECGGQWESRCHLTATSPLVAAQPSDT
Chain of zebrafish TAAR1 (Q5QNN1 entry or part of it): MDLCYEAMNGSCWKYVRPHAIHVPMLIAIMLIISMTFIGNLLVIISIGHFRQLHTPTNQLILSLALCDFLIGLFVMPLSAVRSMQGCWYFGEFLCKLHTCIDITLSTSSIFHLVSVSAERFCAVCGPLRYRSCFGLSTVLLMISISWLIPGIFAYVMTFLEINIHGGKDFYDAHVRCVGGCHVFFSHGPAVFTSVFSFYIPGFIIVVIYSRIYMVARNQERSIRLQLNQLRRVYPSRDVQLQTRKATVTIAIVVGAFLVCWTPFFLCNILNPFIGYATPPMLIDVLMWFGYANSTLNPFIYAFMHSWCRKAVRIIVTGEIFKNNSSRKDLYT
Chain of shark TAARS1b (A0A401S5C1 entry or part of it): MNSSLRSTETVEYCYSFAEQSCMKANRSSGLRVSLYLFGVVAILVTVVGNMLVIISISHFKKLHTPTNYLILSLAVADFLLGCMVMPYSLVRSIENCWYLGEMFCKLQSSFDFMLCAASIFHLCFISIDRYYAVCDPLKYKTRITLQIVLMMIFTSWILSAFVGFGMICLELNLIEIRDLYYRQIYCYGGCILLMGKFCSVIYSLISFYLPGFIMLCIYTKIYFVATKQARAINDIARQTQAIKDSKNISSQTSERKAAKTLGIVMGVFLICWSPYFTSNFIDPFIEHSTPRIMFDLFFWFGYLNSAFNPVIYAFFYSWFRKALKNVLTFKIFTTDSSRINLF
Chain of zebrafish TARL1 (A0A8M1Q794 entry or part of it): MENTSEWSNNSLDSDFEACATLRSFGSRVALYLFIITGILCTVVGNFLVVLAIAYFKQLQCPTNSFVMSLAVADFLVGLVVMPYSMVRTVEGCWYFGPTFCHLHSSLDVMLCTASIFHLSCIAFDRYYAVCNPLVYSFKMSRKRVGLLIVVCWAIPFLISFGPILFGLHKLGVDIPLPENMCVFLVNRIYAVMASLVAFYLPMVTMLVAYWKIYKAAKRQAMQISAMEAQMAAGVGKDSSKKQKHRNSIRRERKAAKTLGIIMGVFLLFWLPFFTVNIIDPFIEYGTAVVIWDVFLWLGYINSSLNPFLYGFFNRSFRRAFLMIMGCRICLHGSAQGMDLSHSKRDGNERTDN

As to `CSCCCN` [3-methylthiopropylamine], the pEC50 in experiment [1] was 4.20.

Regarding `CCCCCCCCN` [octylamine], in experiment [2], the “response of mouse TAAR1” value is “slight responses”.

In the case of `CCCN` [Propylamine, propylamine], the pEC50 in experiment [1] was 3.88.

In experiment [1], `NC1CCCC1` [Cyclopentylamine, cyclopentylamine] had a negative-log EC50 (pEC50) of 3.95.

Consider `NCCCNCCCCNCCCN` [spermine], for which the “activation of TAAR9” value in experiment [3], in experiment [4], in [5] and in [6] was “activation” throughout. For the same compound, in experiment [7], the “ligand recognition by mouse TAAR9” value is given as “can recognize”. For the same compound, the “ligand recognition by TARLL2a” value in experiment [8] is listed as “recognize”.

In [9], `Cc1ccc2cc[nH]c2c1` [6-methylindole] had a pEC50 of 5.04.

Take `Cn1ccc2ccccc21` [1-methylindole]: the pEC50 in experiment [9] is 3.79.

`NCCc1c[nH]c2ccc(O)cc12` [Serotonin, serotonin]: the pEC50 in [9] is 6.70; in [2] (mTAAR1), 4.84; in [10], 7.00; in [11] it was 6.08 and 6.10; in experiment [12] it was 6.41; in experiment [13], 5.63. Moreover, the pEC50 in experiment [14] was 6.96.

On to `NCCCCNCCCN` [spermidine], for which the “activation of TAAR9” value in [3], in experiment [4], in [5] and in experiment [6] was “activation” in each case. Further, in experiment [7], the “ligand recognition by mouse TAAR9” value is recorded as “can recognize”.

Compound `CCCCCN` [Amylamine, amylamine] had a pEC50 in experiment [1] of 4.97.

Turning to `CC(C)N` [Isopropylamine, isopropylamine], in experiment [1], the pEC50 is 3.59 and the “ligand profile of TARLL4a” value is “ligand profile includes”.

Compound `NCCCCCO` [5-amino-1-pentanol] had a pEC50 in experiment [1] of 4.39.

On to `CCCCCCCN` [heptylamine], for which the “ligand profile of TARLL4a” value in experiment [1] is listed as “ligand profile includes”. Besides, the “response of mouse TAAR1” value in experiment [2] was “slight responses”.

The compound `CC(C)CN` [Isobutylamine, isobutylamine] had a pEC50 in experiment [1] of 3.70.

`Cc1cccc2cc[nH]c12` [7-methylindole] gave a pEC50 in experiment [9] of 4.42.

`CCCCN` [Butylamine, butylamine] gave a pEC50 in experiment [1] of 4.13.

On to `CC(C)N(C)C` [N,N-dimethylisopropylamine], for which the pEC50 in experiment [15] is 4.39; in experiment [16], 4.30 and ~4.30.

In turn, `CN(C)CCCN(C)C` [N,N,N',N'-tetramethyl-1,3-propanediamine, N,N,N′,N′-Tetramethyl-1,3-propanediamine] showed a pEC50 in experiment [17] (TARLL3h) of 3.93. Further, the “ligand recognition by TARLL3h” value in experiment [17] (fig. 4C) was “recognizes”.

The compound `Cc1c[nH]c2ccccc12` [3-methylindole] gave a pEC50 in experiment [9] of 5.18.

In the case of `NC1CCCCC1` [cyclohexylamine], the “ligand profile of TARLL4a” value in [1] is given as “ligand profile includes”.

In [9], `c1ccc2[nH]ccc2c1` [Indole, indole] showed a pEC50 of 4.72. For the same compound, the “activation of TARLL1b” value in experiment [9] (fig. 4E, fig. S9D and E) is “can be activated”.

Take `CCCCCCN` [Hexylamine, hexylamine]: in experiment [1], the pEC50 was 4.69 and the “ligand profile of TARLL4a” value is listed as “ligand profile includes”. In addition, the “response of mouse TAAR1” value in experiment [2] is given as “slight responses”.

With `CC(C)CCN` [Isoamylamine, isoamylamine], the pEC50 is 3.85 in experiment [1]; 3.70 and ~3.70 in experiment [18]; 3.52 and ~3.52 in [19].

`COc1ccc2[nH]cc(CCN)c2c1` [5-methoxytryptamine] had a pEC50 in experiment [20] of 7.05.

`Cc1ccc2[nH]ccc2c1` [5-methylindole]: in experiment [9], the pEC50 is 5.05.

By pEC50 is commonly meant −log10 of the EC50, conventionally taken in molar units. Higher therefore signals a small EC50.
